Legend:
IKK-beta = molecular target: T1, IKK-beta (Homo sapiens, UniProt O14920); experiment: IKK-beta kinase assay; assay type: biochemical; settings: 10 μM compound; read-out: IKK-beta percent of inhibition
T1 sequence (O14920 1-756): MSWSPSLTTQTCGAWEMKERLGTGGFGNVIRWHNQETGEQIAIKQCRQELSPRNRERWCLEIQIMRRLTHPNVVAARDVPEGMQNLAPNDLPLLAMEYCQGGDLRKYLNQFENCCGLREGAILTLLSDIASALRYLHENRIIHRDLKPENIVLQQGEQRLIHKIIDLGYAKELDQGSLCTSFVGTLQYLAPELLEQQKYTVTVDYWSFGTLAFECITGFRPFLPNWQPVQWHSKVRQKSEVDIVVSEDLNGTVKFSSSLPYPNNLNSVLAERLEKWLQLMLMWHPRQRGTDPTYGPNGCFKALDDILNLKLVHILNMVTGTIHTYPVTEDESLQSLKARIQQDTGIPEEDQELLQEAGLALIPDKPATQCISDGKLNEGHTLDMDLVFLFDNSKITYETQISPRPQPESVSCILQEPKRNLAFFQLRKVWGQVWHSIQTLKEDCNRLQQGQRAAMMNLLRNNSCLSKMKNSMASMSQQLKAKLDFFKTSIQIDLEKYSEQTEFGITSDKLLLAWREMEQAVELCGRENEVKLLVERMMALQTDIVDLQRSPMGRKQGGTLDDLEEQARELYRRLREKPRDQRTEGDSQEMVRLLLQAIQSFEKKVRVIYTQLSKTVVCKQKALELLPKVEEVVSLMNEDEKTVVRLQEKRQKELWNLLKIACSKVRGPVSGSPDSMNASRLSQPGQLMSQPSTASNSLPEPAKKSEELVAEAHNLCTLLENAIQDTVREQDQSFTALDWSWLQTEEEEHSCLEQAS
Protocol: (§1) General description of the kinase assays: the kinase activity was assayed in 96-well microtiter plates at a final compound concentration of 10 μM in a total volume of 50 μl. Compounds were dissolved in 100% DMSO to prepare a 10 mM stock solution and than diluted with buffer to reach a 10 μM (or the required) final concentration. The kinase concentration was used to yield 10% ATP turn over. The ATP concentration was used at the KmATP and 12.5 μCi/ml adenosine 5′[γ-33P]triphosphate. The substrate concentration was used at 5 fold excess over the Km for the substrate. The reaction was incubated for 1 hour at room temperature and stopped by addition of 10 μl 50 mM EDTA. The assay was transferred to a 96 well MAPH filter plate (Millipore). The radioactivity was counted on a Microbeta microplate counter.

P70S6K = P70S6K (Homo sapiens, UniProt P23443); experiment: P70S6K kinase assay; assay type: biochemical; settings: 10 μM compound; read-out: P70S6K percent of inhibition
Protocol: as §1

ROCK2 = ROCK2 (Homo sapiens, UniProt O75116); experiment: ROCK2 kinase assay; assay type: biochemical; settings: 10 μM compound; read-out: ROCK2 percent of inhibition
Protocol: as §1

cMet = cMet (Homo sapiens, UniProt P08581); experiment: cMet kinase assay; assay type: biochemical; settings: 10 μM compound; read-out: cMet percent of inhibition
Sequence of cMet (P08581 25-1390): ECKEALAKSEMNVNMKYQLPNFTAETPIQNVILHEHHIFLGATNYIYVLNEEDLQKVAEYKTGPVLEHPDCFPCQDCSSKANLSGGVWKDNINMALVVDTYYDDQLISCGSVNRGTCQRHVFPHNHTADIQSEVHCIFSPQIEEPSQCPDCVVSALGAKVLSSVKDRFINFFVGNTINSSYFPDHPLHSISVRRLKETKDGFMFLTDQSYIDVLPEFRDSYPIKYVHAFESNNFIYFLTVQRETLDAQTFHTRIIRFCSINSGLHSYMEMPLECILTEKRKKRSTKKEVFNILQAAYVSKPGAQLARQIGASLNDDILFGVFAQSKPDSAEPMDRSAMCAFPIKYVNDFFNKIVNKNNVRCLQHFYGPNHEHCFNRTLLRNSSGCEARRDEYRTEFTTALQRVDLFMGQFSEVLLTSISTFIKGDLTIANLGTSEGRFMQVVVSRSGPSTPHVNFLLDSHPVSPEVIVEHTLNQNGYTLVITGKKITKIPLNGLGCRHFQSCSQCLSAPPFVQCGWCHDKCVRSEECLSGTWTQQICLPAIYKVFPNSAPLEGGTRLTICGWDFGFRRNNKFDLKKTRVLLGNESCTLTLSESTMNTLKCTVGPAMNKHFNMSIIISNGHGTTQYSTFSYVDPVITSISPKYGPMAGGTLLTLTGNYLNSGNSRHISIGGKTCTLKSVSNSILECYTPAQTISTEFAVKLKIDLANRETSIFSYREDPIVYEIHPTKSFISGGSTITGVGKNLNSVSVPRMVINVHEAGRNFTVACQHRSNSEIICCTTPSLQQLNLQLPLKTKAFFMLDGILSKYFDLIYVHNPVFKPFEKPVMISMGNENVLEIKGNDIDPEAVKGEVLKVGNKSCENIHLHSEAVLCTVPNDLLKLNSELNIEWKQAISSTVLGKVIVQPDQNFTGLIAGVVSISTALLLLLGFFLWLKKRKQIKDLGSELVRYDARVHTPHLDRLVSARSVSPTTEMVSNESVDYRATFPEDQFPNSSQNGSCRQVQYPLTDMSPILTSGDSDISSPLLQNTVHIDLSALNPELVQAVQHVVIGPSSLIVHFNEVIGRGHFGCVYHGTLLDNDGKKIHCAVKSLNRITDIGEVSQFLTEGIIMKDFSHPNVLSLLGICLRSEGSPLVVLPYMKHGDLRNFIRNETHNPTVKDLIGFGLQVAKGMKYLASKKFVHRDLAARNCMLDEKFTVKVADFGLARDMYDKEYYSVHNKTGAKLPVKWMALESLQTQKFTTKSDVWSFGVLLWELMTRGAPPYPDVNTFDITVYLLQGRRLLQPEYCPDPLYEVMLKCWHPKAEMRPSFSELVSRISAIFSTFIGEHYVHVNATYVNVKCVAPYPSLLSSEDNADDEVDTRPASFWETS
Protocol: as §1

MAPK-ERK1 = MAPK-ERK1 (Homo sapiens, UniProt P27361); experiment: MAPK-ERK1 kinase assay; assay type: biochemical; settings: 10 μM compound; read-out: MAPK-ERK1 percent of inhibition
Protocol: as §1

EGFR = EGFR (Homo sapiens, UniProt P00533); experiment: EGFR kinase assay (33P-ATP filter plate); assay type: biochemical; settings: for inhibition at 10 µM: 10 μM compound, read-out: EGFR percent of inhibition; for IC50: EGFR-PTK assay
Protocol: as §1

Abl = Abl (Homo sapiens, UniProt P00519); experiment: Abl kinase assay; assay type: biochemical; settings: 10 μM compound; read-out: Abl percent of inhibition
Protocol: as §1

PDGFR-beta = PDGFR-beta (Homo sapiens, UniProt P09619); experiment: PDGFR-beta kinase assay; assay type: biochemical; settings: 10 μM compound; read-out: PDGFR-beta percent of inhibition
Protocol: as §1

P56Lck = P56Lck (Homo sapiens, UniProt P06239); experiment: P56Lck kinase assay; assay type: biochemical; settings: 10 μM compound; read-out: P56Lck percent of inhibition
Protocol: as §1

Jnk1a1 = Jnk1a1 (Homo sapiens, UniProt P45983); experiment: Jnk1a1 kinase assay; assay type: biochemical; settings: 10 μM compound; read-out: Jnk1a1 percent of inhibition
Protocol: as §1

InsR = InsR (Homo sapiens, UniProt P06213); experiment: InsR kinase assay; assay type: biochemical; settings: 10 μM compound; read-out: InsR percent of inhibition
Sequence of InsR (P06213 28-1382, species assumed): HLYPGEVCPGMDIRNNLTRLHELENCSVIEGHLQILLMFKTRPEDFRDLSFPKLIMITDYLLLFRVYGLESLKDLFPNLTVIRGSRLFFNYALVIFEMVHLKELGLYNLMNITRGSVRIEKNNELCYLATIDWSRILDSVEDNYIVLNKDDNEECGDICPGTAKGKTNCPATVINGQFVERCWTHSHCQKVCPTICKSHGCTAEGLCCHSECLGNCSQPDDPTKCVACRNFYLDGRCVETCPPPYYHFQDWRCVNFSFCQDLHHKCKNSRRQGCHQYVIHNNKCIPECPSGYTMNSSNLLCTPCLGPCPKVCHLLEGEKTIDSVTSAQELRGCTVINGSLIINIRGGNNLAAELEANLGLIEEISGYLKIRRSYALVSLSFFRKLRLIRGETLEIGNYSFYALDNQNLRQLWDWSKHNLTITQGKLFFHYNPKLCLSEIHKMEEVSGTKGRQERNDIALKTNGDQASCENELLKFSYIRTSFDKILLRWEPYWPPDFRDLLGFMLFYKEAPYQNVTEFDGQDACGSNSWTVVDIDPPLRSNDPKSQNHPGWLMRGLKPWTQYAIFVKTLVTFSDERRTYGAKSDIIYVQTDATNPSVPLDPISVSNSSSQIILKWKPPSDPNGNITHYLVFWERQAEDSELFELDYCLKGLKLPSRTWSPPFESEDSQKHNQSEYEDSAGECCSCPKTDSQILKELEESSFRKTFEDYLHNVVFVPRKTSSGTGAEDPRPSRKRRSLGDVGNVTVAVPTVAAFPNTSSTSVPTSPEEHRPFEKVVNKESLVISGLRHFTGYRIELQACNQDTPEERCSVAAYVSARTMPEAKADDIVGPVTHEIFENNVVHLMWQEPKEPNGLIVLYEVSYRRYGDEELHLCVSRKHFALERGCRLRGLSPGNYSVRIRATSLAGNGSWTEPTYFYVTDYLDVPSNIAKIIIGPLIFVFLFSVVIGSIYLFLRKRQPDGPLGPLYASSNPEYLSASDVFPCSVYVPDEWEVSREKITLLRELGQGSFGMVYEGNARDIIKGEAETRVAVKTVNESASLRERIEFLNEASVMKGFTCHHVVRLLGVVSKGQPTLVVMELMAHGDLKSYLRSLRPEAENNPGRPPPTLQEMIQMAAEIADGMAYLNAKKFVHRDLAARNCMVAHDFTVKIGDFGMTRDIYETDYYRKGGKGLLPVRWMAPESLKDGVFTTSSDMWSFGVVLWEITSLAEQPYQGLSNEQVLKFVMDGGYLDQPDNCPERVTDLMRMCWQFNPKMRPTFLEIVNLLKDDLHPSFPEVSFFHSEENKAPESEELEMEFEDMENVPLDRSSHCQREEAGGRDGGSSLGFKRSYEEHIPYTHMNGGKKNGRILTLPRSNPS
Protocol: as §1

RSK1 = RSK1 (Homo sapiens, UniProt Q15418); experiment: RSK1 kinase assay; assay type: biochemical; settings: 10 μM compound; read-out: RSK1 percent of inhibition
Protocol: as §1

CK1-alpha = CK1-alpha (Homo sapiens, UniProt P48729); experiment: CK1-alpha kinase assay; assay type: biochemical; settings: 10 μM compound; read-out: CK1-alpha percent of inhibition
Protocol: as §1

GSK-3beta = GSK-3beta (Homo sapiens, UniProt P49841); experiment: GSK-3beta kinase assay; assay type: biochemical; settings: 10 μM compound; read-out: GSK-3beta percent of inhibition
Protocol: as §1

Kit = Kit (Homo sapiens, UniProt P10721); experiment: Kit kinase assay; assay type: biochemical; settings: 10 μM compound; read-out: Kit percent of inhibition
Sequence of Kit (P10721 26-976, species assumed): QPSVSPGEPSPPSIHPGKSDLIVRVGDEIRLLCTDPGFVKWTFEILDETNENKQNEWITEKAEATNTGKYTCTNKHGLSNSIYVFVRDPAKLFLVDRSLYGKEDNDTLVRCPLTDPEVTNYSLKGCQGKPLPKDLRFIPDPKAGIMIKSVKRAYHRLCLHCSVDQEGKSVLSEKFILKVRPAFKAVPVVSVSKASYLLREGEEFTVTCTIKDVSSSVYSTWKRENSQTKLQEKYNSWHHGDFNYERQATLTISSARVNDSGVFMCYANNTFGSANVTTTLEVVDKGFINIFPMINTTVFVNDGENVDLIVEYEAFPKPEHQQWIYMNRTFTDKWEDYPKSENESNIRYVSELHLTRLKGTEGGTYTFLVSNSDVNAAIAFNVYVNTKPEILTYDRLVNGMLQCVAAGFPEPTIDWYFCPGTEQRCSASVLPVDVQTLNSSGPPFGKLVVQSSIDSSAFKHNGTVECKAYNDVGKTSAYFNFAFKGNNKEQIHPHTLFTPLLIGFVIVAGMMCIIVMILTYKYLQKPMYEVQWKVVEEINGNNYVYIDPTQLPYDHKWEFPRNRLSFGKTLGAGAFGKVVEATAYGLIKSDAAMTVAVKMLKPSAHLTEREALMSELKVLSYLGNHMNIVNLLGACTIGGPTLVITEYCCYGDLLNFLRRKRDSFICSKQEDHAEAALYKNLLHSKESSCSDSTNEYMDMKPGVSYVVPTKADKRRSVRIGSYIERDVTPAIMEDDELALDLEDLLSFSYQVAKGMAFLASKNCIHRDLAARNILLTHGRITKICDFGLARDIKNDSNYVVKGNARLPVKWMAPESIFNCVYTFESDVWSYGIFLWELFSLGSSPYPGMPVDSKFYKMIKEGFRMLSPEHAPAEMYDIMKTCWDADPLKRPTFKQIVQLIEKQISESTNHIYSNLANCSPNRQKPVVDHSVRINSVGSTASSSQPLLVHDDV
Protocol: as §1

SRPK1 = SRPK1 (Homo sapiens, UniProt Q96SB4); experiment: SRPK1 kinase assay; assay type: biochemical; settings: 10 μM compound; read-out: SRPK1 percent of inhibition
Sequence of SRPK1 (Q96SB4 whole entry, species assumed): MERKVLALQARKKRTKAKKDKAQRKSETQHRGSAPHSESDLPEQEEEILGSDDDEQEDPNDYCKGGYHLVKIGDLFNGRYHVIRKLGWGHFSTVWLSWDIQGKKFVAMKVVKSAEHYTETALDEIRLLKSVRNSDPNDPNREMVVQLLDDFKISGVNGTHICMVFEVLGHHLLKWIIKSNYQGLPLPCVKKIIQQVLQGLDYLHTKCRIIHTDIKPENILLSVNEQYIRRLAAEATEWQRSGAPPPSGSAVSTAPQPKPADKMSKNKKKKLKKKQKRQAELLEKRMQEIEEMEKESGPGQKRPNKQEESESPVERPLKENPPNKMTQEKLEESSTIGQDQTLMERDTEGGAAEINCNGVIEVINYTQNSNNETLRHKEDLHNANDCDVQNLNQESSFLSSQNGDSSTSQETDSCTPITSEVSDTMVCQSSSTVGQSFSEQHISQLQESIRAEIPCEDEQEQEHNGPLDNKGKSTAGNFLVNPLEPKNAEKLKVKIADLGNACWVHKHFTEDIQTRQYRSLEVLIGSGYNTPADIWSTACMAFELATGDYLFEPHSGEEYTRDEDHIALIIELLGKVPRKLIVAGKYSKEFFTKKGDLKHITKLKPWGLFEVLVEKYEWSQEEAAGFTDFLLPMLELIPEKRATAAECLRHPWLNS
Protocol: as §1

c-Raf = c-Raf (Homo sapiens, UniProt P04049); experiment: c-Raf kinase assay; assay type: biochemical; settings: 10 μM compound; read-out: c-Raf percent of inhibition
Protocol: as §1

c-Src = c-Src (Homo sapiens, UniProt P12931); experiment: c-Src kinase assay; assay type: biochemical; settings: 10 μM compound; read-out: c-Src percent of inhibition
Protocol: as §1

CDK2/CycA = CDK2/CycA (Homo sapiens, UniProt P24941); experiment: CDK2/CycA kinase assay; assay type: biochemical; settings: 10 μM compound; read-out: CDK2/CycA percent of inhibition
Protocol: as §1

AKT1/PKBa = AKT1/PKBa (Homo sapiens, UniProt P31749); experiment: AKT1/PKBa kinase assay; assay type: biochemical; settings: 10 μM compound; read-out: AKT1/PKBa percent of inhibition
Sequence of AKT1/PKBa (P31749 whole entry): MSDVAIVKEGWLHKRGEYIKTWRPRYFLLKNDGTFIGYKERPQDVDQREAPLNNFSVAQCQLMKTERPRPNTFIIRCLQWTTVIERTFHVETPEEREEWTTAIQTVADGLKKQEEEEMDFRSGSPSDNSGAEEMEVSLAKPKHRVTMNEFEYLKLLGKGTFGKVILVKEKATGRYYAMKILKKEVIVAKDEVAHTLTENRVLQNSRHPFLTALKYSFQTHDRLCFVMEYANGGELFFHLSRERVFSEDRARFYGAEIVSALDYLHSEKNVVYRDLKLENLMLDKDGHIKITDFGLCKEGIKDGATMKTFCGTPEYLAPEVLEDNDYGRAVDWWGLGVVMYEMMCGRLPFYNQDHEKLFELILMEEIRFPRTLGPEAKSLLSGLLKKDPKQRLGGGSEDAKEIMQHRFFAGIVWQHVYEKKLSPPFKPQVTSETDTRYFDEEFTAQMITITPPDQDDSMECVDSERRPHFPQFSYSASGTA
Protocol: as §1

Fc1ccccc1Nc1ncnc2sc3c(c12)CCCC3 [Compound 1, (2-Fluoro-phenyl)-(5,6,7,8-tetrahydro-benzo[4,5]thieno[2,3-d]pyrimidin-4-yl)-amine]
inhibition at 10 µM (IKK-beta): 23% | inhibition at 10 µM (P70S6K): -23% | inhibition at 10 µM (ROCK2): 3% | inhibition at 10 µM (cMet): 1% | melting point: 160.7 °C | inhibition at 10 µM (MAPK-ERK1): -8% | inhibition at 10 µM (EGFR): 97% | inhibition at 10 µM (Abl): 10% | inhibition at 10 µM (PDGFR-beta): 4% | inhibition at 10 µM (P56Lck): 10% | inhibition at 10 µM (Jnk1a1): -4% | inhibition at 10 µM (InsR): -7% | inhibition at 10 µM (RSK1): -18% | inhibition at 10 µM (CK1-alpha): 6% | inhibition at 10 µM (GSK-3beta): 7% | inhibition at 10 µM (Kit): 13% | inhibition at 10 µM (SRPK1): 11% | inhibition at 10 µM (c-Raf): 23% | inhibition at 10 µM (c-Src): 13% | inhibition at 10 µM (CDK2/CycA): 3% | inhibition at 10 µM (AKT1/PKBa): -5%

Fc1cccc(Nc2ncnc3sc4c(c23)CCCC4)c1 [Compound 2, (3-Fluoro-phenyl)-(5,6,7,8-tetrahydro-benzo[4,5]thieno[2,3-d]pyrimidin-4-yl)-amine]
inhibition at 10 µM (IKK-beta): 19% | inhibition at 10 µM (P70S6K): -26% | inhibition at 10 µM (ROCK2): 6% | inhibition at 10 µM (cMet): -10% | melting point: 210.6 °C | inhibition at 10 µM (MAPK-ERK1): -14% | inhibition at 10 µM (EGFR): 98% | IC50 (EGFR): 12.4 nM | inhibition at 10 µM (Abl): -19% | inhibition at 10 µM (PDGFR-beta): 4% | inhibition at 10 µM (P56Lck): 25% | inhibition at 10 µM (Jnk1a1): -3% | inhibition at 10 µM (InsR): -6% | inhibition at 10 µM (RSK1): -22% | inhibition at 10 µM (CK1-alpha): 6% | inhibition at 10 µM (GSK-3beta): 3% | inhibition at 10 µM (Kit): -5% | inhibition at 10 µM (SRPK1): -5% | inhibition at 10 µM (c-Raf): 16% | inhibition at 10 µM (c-Src): 6% | inhibition at 10 µM (CDK2/CycA): -1% | inhibition at 10 µM (AKT1/PKBa): -7%

Brc1cccc(Nc2ncnc3sc4c(c23)CCCC4)c1 [Compound 3, (3-Bromo-phenyl)-(5,6,7,8-tetrahydro-benzo[4,5]thieno[2,3-d]pyrimidin-4-yl)-amine]
inhibition at 10 µM (IKK-beta): 11% | inhibition at 10 µM (P70S6K): 4% | inhibition at 10 µM (ROCK2): 12% | inhibition at 10 µM (cMet): -8% | melting point: 169 °C | inhibition at 10 µM (MAPK-ERK1): 0% | inhibition at 10 µM (EGFR): 100% | IC50 (EGFR): 2.61 nM | inhibition at 10 µM (Abl): -36% | inhibition at 10 µM (PDGFR-beta): 1% | inhibition at 10 µM (P56Lck): 17% | inhibition at 10 µM (Jnk1a1): 4% | inhibition at 10 µM (InsR): -9% | inhibition at 10 µM (RSK1): 23% | inhibition at 10 µM (CK1-alpha): 17% | inhibition at 10 µM (GSK-3beta): -10% | inhibition at 10 µM (Kit): -2% | inhibition at 10 µM (SRPK1): 8% | inhibition at 10 µM (c-Raf): -4% | inhibition at 10 µM (c-Src): 17% | inhibition at 10 µM (CDK2/CycA): 4% | inhibition at 10 µM (AKT1/PKBa): -27%

Nc1cccc(Nc2ncnc3sc4c(c23)CCCC4)c1 [Compound 4, N-(5,6,7,8-Tetrahydro-benzo[4,5]thieno[2,3-d]pyrimidin-4-yl)-benzene-1,3-diamine]
inhibition at 10 µM (IKK-beta): 12% | inhibition at 10 µM (P70S6K): 2% | inhibition at 10 µM (ROCK2): 7% | inhibition at 10 µM (cMet): 2% | melting point: 164.3 °C (dec.) | inhibition at 10 µM (MAPK-ERK1): 8% | inhibition at 10 µM (EGFR): 98% | IC50 (EGFR): 16.8 nM | inhibition at 10 µM (Abl): -7% | inhibition at 10 µM (PDGFR-beta): 0% | inhibition at 10 µM (P56Lck): 9% | inhibition at 10 µM (Jnk1a1): 6% | inhibition at 10 µM (InsR): -7% | inhibition at 10 µM (RSK1): 6% | inhibition at 10 µM (CK1-alpha): 5% | inhibition at 10 µM (GSK-3beta): -2% | inhibition at 10 µM (Kit): 2% | inhibition at 10 µM (SRPK1): 6% | inhibition at 10 µM (c-Raf): 14% | inhibition at 10 µM (c-Src): 24% | inhibition at 10 µM (CDK2/CycA): 16% | inhibition at 10 µM (AKT1/PKBa): 1%

Fc1ccc(Nc2ncnc3sc4c(c23)CCCC4)cc1 [Compound 6, (4-Fluoro-phenyl)-(5,6,7,8-tetrahydro-benzo[4,5]thieno[2,3-d]pyrimidin-4-yl)-amine]
inhibition at 10 µM (IKK-beta): 8% | inhibition at 10 µM (P70S6K): -7% | inhibition at 10 µM (ROCK2): 6% | inhibition at 10 µM (cMet): 4% | inhibition at 10 µM (MAPK-ERK1): 5% | inhibition at 10 µM (EGFR): 99% | IC50 (EGFR): 10.5 nM | inhibition at 10 µM (Abl): 4% | inhibition at 10 µM (PDGFR-beta): -12% | inhibition at 10 µM (P56Lck): 11% | inhibition at 10 µM (Jnk1a1): 15% | inhibition at 10 µM (InsR): 44% | inhibition at 10 µM (RSK1): 19% | inhibition at 10 µM (CK1-alpha): 7% | inhibition at 10 µM (GSK-3beta): -1% | inhibition at 10 µM (Kit): 7% | inhibition at 10 µM (SRPK1): 9% | inhibition at 10 µM (c-Raf): 12% | inhibition at 10 µM (c-Src): 12% | inhibition at 10 µM (CDK2/CycA): 11% | inhibition at 10 µM (AKT1/PKBa): -8%
